We go through 3 compounds from patent publication US5824653A, “Anthelmintic compositions for equidae” (priority 1994, dated 1998).

Data set [1] concerns Strongylidase. The experiment in a line: Trial 2: modified critical test, efficacy against Strongylidase in horses. The data set is classed as in vivo. To be noted: Trial 2, horses. As for the experimental part:
(§1) The method of evaluating the activity of the formulation was a modified critical test (Lyons et al., 1986) which involved killing the horses 24 hours after treatment.
(§2) Efficacy is the number of worms count dead and removed versus the number of worms count alive and not removed (scolex attached for Anaplocephala perfoliata).
(§3) A trial involving Ivermectin drench (1 ml per 10 kg of body weight equivalent to 0.2 mg of Ivermectin per kg B.W.), praziquantel drench (0.5 to 2 mg of praziquantel per kg of body weight), and formulations in accordance with Examples 6, 7 and 8.
(§4) Seven groups of 6 horses per group were involved in the study. Area of origin of the horses was well known for having internal parasitism problem and specifically tapeworms (Anoplocephala perfoliata) infestation.

Data set [2] concerns Gasterophilus spp. Kind of data set: Trial 2: modified critical test, efficacy against Gasterophilus spp. in horses. It is filed as in vivo. To be noted: Trial 2, horses. The protocol:
as §1, §2, §3, §4

For data set [3], the system named is Parascaris equorum. Kind of data set: Trial 2: modified critical test, efficacy against Parascaris equorum in horses. It is filed as in vivo. To be noted: Trial 2, horses. The protocol:
as §1, §2, §3, §4

For data set [4], the system named is Anoplocephala perfoliata. The experiment in a line: Trial 2: modified critical test, efficacy against Anoplocephala perfoliata in horses. The data set is classed as in vivo. To be noted: Trial 2, horses. As for the experimental part:
as §1, §2, §3, §4

Data set [5] has as its system Strongylidase. The experiment in a line: Trial 1: modified critical test, efficacy against Strongylidase in horses. It is filed as in vivo. To be noted: Trial 1, horses. The protocol: as §1, §2
(§5) A trial involving abamectin paste (1 ml per 20 kg of body weight equivalent to 0.2 mg of Abamectin per kg B.W.), praziquantel paste (0.1 to 5 mg of Praziquantel per kg of body weight), and formulations in accordance with examples 1,2,3,4 and 5.
(§6) Eleven groups of ten horses per group were involved in the study. Area of origin of the horses was well known for having internal parasitism problem and specifically tapeworms (Anoplocephala perfoliata) infestation.

For data set [6], the system named is Gasterophilus spp. Kind of data set: Trial 1: modified critical test, efficacy against Gasterophilus spp. in horses. It is filed as in vivo. To be noted: Trial 1, horses. The protocol:
as §1, §2, §5, §6

For data set [7], the system named is Parascaris equorum. Kind of data set: Trial 1: modified critical test, efficacy against Parascaris equorum in horses. The data set is classed as in vivo. To be noted: Trial 1, horses. As for the experimental part:
as §1, §2, §5, §6

The subject of data set [8] is Anoplocephala perfoliata. Kind of data set: Trial 1: modified critical test, efficacy against Anoplocephala perfoliata in horses. The data set is classed as in vivo. To be noted: Trial 1, horses. As for the experimental part: as §1, §2, §5, §6
Data set [9] in a line: Biodisponibility of praziquantel in horses. It is filed as in vivo. To be noted: paste formula.
The conditions of data set [10]: cited from earlier work.

In the case of `CC[C@H](C)[C@H]1O[C@]2(CC[C@@H]1C)C[C@@H]1C[C@@H](C/C=C(\C)[C@@H](O[C@H]3C[C@H](OC)[C@@H](O[C@H]4C[C@H](OC)[C@@H](O)[C@H](C)O4)[C@H](C)O3)[C@@H](C)/C=C/C=C3\CO[C@@H]4[C@H](O)C(C)=C[C@@H](C(=O)O1)[C@]34O)O2` [Ivermectin], the “% Efficacy Strongylidase” value in the data set on Strongylidase [1] (ivermectin 0.2 mg/kg) turned out to be 100%. In addition, the “% Efficacy Gasterophilus spp.” value in the data set with Gasterophilus spp. [2] (ivermectin 0.2 mg/kg) was found to be 100%. For the same compound, in the data set with Parascaris equorum [3] (ivermectin 0.2 mg/kg), the “% Efficacy Parascaris equorum” value was 100%. Moreover, the “% Efficacy Anoplocephala perfoliata” value in the data set with Anoplocephala perfoliata [4] (ivermectin 0.2 mg/kg) is listed as 0%.
Regarding `O=C(C1CCCCC1)N1CC(=O)N2CCc3ccccc3C2C1` (stereo not drawn) [Praziquantel, 2(cyclohexylcarbonyl)-1,2,3,6,7,11b-hexahydro-4H-pyrazino[2,1-a]isoquinolin-4-one], the “% Efficacy Strongylidase” value in the data set with Strongylidase [5] (praziquantel 0.1 mg/kg), in the data set on Strongylidase [5] (praziquantel 0.5 mg/kg), in the data set on Strongylidase [5] (praziquantel 1 mg/kg), in the data set on Strongylidase [5] (praziquantel 2 mg/kg), in the data set on Strongylidase [5] (praziquantel 5 mg/kg) and in the data set with Strongylidase [1] (praziquantel 0.5 mg/kg) was 0% each time. Also, the “% Efficacy Strongylidase” value in the data set with Strongylidase [1] (praziquantel 1 mg/kg) and with Strongylidase [1] (praziquantel 2 mg/kg) was 0% throughout. In addition, the “% Efficacy Gasterophilus spp.” value in the data set on Gasterophilus spp. [6] (praziquantel 0.1 mg/kg), with Gasterophilus spp. [6] (praziquantel 0.5 mg/kg), in the data set on Gasterophilus spp. [6] (praziquantel 1 mg/kg), in the data set with Gasterophilus spp. [6] (praziquantel 2 mg/kg), in the data set with Gasterophilus spp. [6] (praziquantel 5 mg/kg) and with Gasterophilus spp. [2] (praziquantel 0.5 mg/kg) was 0% each time. The “% Efficacy Gasterophilus spp.” value with Gasterophilus spp. [2] (praziquantel 1 mg/kg) and in the data set with Gasterophilus spp. [2] (praziquantel 2 mg/kg) was 0% each time. Moreover, the “% Efficacy Parascaris equorum” value in the data set with Parascaris equorum [7] (praziquantel 0.1 mg/kg), in the data set with Parascaris equorum [7] (praziquantel 0.5 mg/kg), with Parascaris equorum [7] (praziquantel 1 mg/kg), in the data set with Parascaris equorum [7] (praziquantel 2 mg/kg), with Parascaris equorum [7] (praziquantel 5 mg/kg) and in the data set on Parascaris equorum [3] (praziquantel 0.5 mg/kg) was 0% throughout. Moreover, the “% Efficacy Parascaris equorum” value in the data set with Parascaris equorum [3] (praziquantel 1 mg/kg) and in the data set on Parascaris equorum [3] (praziquantel 2 mg/kg) was 0% each time. Moreover, the “% Efficacy Anoplocephala perfoliata” value is 0% in the data set with Anoplocephala perfoliata [8] (praziquantel 0.1 mg/kg); 27% with Anoplocephala perfoliata [8] (praziquantel 0.5 mg/kg); 51% in the data set with Anoplocephala perfoliata [8] (praziquantel 1 mg/kg); 71% with Anoplocephala perfoliata [8] (praziquantel 2 mg/kg); 33% in the data set with Anoplocephala perfoliata [8] (praziquantel 5 mg/kg); 21% in the data set with Anoplocephala perfoliata [4] (praziquantel 0.5 mg/kg). In addition, the “% Efficacy Anoplocephala perfoliata” value turned out to be 43% with Anoplocephala perfoliata [4] (praziquantel 1 mg/kg) and 59% in the data set with Anoplocephala perfoliata [4] (praziquantel 2 mg/kg). Also, in data set [9], the biodisponibility of praziquantel result is given as “better biodisponibility”. The solubility in water entry in data set [10] is “relatively insoluble”.
As to Abamectin, in the data set on Strongylidase [5] (abamectin 0.2 mg/kg), the “% Efficacy Strongylidase” value is reported as 100%. Also, in the data set with Gasterophilus spp. [6] (abamectin 0.2 mg/kg), the “% Efficacy Gasterophilus spp.” value is given as 100%. Further, the “% Efficacy Parascaris equorum” value in the data set with Parascaris equorum [7] (abamectin 0.2 mg/kg) worked out at 100%. Moreover, in the data set with Anoplocephala perfoliata [8] (abamectin 0.2 mg/kg), the “% Efficacy Anoplocephala perfoliata” value is reported as 0%.
